# According to patent publication US11655235B2, “Pyrrolidine and piperidine compounds” (YUHAN CORPORATION, priority 2019, dated 2023):
# Columns and labels:
# [1] = target: T1, Recombinant human FAP (Homo sapiens, UniProt Q12884); assay: FAP FRET assay, FGF21-sequence FRET peptide substrate; type: biochemical; settings: FRET peptide with human FGF21 sequence, 6 μM, 37° C.
# T1 construct: purchased R&D systems
# T1 sequence (Q12884 1-760): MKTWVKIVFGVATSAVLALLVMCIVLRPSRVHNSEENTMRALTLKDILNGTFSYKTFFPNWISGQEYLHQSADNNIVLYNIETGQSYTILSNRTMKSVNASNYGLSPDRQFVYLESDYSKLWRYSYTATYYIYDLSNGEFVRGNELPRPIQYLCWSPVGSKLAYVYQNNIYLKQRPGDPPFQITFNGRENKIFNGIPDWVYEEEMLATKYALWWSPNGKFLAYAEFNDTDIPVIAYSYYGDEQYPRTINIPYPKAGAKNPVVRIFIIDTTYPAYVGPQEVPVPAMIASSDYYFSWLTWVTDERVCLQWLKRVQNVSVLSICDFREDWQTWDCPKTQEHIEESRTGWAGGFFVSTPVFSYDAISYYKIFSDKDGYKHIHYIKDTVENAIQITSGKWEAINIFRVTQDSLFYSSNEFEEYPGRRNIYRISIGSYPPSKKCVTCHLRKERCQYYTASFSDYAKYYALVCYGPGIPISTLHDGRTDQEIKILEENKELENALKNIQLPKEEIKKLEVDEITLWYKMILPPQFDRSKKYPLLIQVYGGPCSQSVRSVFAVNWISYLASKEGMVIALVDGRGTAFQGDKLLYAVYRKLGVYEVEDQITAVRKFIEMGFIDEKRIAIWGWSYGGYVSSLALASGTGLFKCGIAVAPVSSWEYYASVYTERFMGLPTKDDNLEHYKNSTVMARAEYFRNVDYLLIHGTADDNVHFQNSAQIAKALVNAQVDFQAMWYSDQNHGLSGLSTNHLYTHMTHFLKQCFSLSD
# Method: The compounds according to the present technology were evaluated in terms of the inhibitory effect on the activity of dipeptidyl peptidases including FAP by using a substrate producing fluorescent substances upon enzymatic decomposition. The test was conducted at 25° C. to get a final reaction volume of 100 μL in a 96 black well plate. […] Briefly, the test compounds were dissolved in dimethyl sulfoxide (DMSO) at a concentration of 20 mM and then subjected to serial dilution, thereby creating an 8 point curve. As for the control group, a 6 point curve created by serial dilution of Talabostat in the same buffer solution was used. Fluorescence intensity was measured using a microplate reader (Flexstation3, Molecular Devices) under the wavelength condition exciting at 380 nm and reading the emission at 460 nm. The inhibitory effect of the test compounds was measured as a decrease (%) in the signal rate as compared to the control group without any inhibitor. Data was fixed to a logistic model with four variables and IC50 value was calculated using GraphPad Prism program. For the FAP FRET assay, recombinant human FAP (R&D systems) was diluted with 50 mM HEPES (pH 7.2) buffer comprising 150 mM of sodium chloride, 0.1 mg/ml of bovine serum albumin (BSA) and 1 mM EDTA to be 10 ng per final reaction. The test compounds were subjected to serial dilution in a buffer under the condition containing up to 0.1% of DMSO. FRET peptides containing human FGF21 sequence ([…]) conjugated with HyLite Fluor 488 and dark quencher QXL 520 (Anaspec) was used as a substrate. By dissolving in DMSO and then diluting in the same buffer, the substrate was added to be 6 μM per final reaction. All reactions of FRET assay was conducted at 37° C.
# [2] = target: DPP4 (Homo sapiens, UniProt P27487); assay: DPP4 inhibition, fluorogenic substrate H-Gly-Pro-AMC; type: biochemical; parameters: purchased R&D Systems; settings: recombinant human DPP4
# Sequence of DPP4 (P27487 whole entry): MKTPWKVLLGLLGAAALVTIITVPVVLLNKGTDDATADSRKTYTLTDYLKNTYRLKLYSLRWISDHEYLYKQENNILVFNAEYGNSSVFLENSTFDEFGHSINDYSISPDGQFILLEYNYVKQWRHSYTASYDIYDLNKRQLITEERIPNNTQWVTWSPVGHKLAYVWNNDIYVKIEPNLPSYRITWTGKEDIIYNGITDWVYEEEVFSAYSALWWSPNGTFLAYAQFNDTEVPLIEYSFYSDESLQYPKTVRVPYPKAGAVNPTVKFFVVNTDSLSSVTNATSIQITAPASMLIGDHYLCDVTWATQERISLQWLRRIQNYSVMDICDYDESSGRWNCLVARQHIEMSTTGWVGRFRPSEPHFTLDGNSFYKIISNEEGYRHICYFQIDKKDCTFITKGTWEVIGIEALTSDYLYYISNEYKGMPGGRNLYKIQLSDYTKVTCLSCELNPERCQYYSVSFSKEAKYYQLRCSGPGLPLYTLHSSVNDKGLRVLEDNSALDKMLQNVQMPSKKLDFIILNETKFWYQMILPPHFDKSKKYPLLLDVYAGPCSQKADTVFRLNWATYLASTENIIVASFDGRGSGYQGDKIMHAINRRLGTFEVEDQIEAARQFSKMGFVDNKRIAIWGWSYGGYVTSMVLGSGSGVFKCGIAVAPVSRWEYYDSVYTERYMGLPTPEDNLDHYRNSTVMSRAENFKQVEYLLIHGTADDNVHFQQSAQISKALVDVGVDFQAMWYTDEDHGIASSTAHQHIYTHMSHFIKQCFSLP
SMILES,IC50 [1] [nM],IC50 [2] [nM]
"CN(C(=O)c1ccc(N[C@H]2CCN(CC(=O)N3CCC[C@H]3C#N)C2)c2cccnc12)c1ccccc1 [Example 289, N-methyl-N-phenyl-5-[[(3S)-1-[2-oxo-2-[(2S)-2-cyanopyrrolidin-1-yl]ethyl]pyrrolidin-3-yl]amino]quinoline-8-carboxamide]",36.3,14200
"CCN(c1cccc2ncccc12)C1CCN(CC(=O)N2C[C@@H](F)C[C@H]2C#N)CC1 [Example 305, (2S,4S)-1-[2-[4-[ethyl(5-quinolyl)amino]-1-piperidyl]acetyl]-4-fluoro-pyrrolidine-2-carbonitrile]",50.7,2080
"Cc1ccc2ncc(N(C)C3CCN(CC(=O)N4CCC[C@H]4C#N)CC3)cc2c1 [Example 322, (2S)-1-[2-[4-[methyl-(6-methyl-3-quinolyl)amino]-1-piperidyl]acetyl]pyrrolidine-2-carbonitrile]",10.3,≥ 100000
"COc1ccc2ncc(N(C)C3CCN(CC(=O)N4CCC[C@H]4C#N)CC3)cc2c1 [Example 323, (S)-1-(2-(4-((6-methoxyquinolin-3-yl)(methyl)amino)piperidin-1-yl)acetyl)pyrrolidine-2-carbonitrile]",5.8,≥ 100000
"COc1ccc2cc(N(C)C3CCN(CC(=O)N4CCC[C@H]4C#N)CC3)cnc2c1 [Example 324, (2S)-1-[2-[4-[(7-methoxy-3-quinolyl)-methyl-amino]-1-piperidyl]acetyl]pyrrolidine-2-carbonitrile]",25,≥ 100000
"COc1cccc2cc(N(C)C3CCN(CC(=O)N4CCC[C@H]4C#N)CC3)cnc12 [Example 325, (2S)-1-[2-[4-[methyl-(8-methoxy-3-quinolyl)amino]-1-piperidyl]acetyl]pyrrolidine-2-carbonitrile]",8.9,≥ 100000
"Cc1ccc2ncc(N(C)C3CCN(CC(=O)N4C[C@@H](F)C[C@H]4C#N)CC3)cc2c1 [Example 326, (2S,4S)-4-fluoro-1-[2-[4-[methyl-(6-methyl-3-quinolyl)amino]-1-piperidyl]acetyl]pyrrolidine-2-carbonitrile]",8.8,50600
"COc1ccc2ncc(N(C)C3CCN(CC(=O)N4C[C@@H](F)C[C@H]4C#N)CC3)cc2c1 [Example 327, (2S,4S)-4-fluoro-1-(2-(4-((6-methoxyquinolin-3-yl)(methyl)amino)piperidin-1-yl)acetyl)pyrrolidine-2-carbonitrile]",3.1,31500
"COc1ccc2cc(N(C)C3CCN(CC(=O)N4C[C@@H](F)C[C@H]4C#N)CC3)cnc2c1 [Example 328, (2S,4S)-4-fluoro-1-(2-(4-((7-methoxyquinolin-3-yl)(methyl)amino)piperidin-1-yl)acetyl)pyrrolidine-2-carbonitrile]",6,21400
"COc1cccc2cc(N(C)C3CCN(CC(=O)N4C[C@@H](F)C[C@H]4C#N)CC3)cnc12 [Example 329, (2S,4S)-4-fluoro-1-[2-[4-[(8-methoxy-3-quinolyl)-methyl-amino]-1-piperidyl]acetyl]pyrrolidine-2-carbonitrile]",7.5,26300
"Cc1cccc2c(NC3CCN(CC(=O)N4C[C@@H](F)C[C@H]4C#N)CC3)ccnc12 [Example 343, (2S,4S)-4-fluoro-1-[2-[4-[(8-methyl-4-quinolyl)amino]-1-piperidyl]acetyl]pyrrolidine-2-carbonitrile]",30.7,17400
"N#C[C@@H]1C[C@H](F)CN1C(=O)CN1CCC(Nc2ccnc3c(F)cccc23)CC1 [Example 345, (2S,4S)-4-fluoro-1-[2-[4-[(8-fluoro-4-quinolyl)amino]-1-piperidyl]acetyl]pyrrolidine-2-carbonitrile]",19.3,6470
"Cc1ccc2ncc(NC3CCN(CC(=O)N4C[C@@H](F)C[C@H]4C#N)CC3)cc2c1 [Example 363, (2S,4S)-4-fluoro-1-[2-[4-[(6-methyl-3-quinolyl)amino]-1-piperidyl]acetyl]pyrrolidine-2-carbonitrile]",30.6,≥ 10000
"N#C[C@@H]1C[C@H](F)CN1C(=O)CN1CCC(Nc2cnc3ccc(F)cc3c2)CC1 [Example 364, (2S,4S)-4-fluoro-1-[2-[4-[(6-fluoro-3-quinolyl)amino]-1-piperidyl]acetyl]pyrrolidine-2-carbonitrile]",17.2,9130
"COc1ccc2ncc(NC3CCN(CC(=O)N4C[C@@H](F)C[C@H]4C#N)CC3)cc2c1 [Example 365, (2S,4S)-4-fluoro-1-[2-[4-[(6-methoxy-3-quinolyl)amino]-1-piperidyl]acetyl]pyrrolidine-2-carbonitrile]",22.3,≥ 10000
"COc1ccc2cc(NC3CCN(CC(=O)N4C[C@@H](F)C[C@H]4C#N)CC3)cnc2c1 [Example 366, (2S,4S)-4-fluoro-1-[2-[4-[(7-methoxy-3-quinolyl)amino]-1-piperidyl]acetyl]pyrrolidine-2-carbonitrile]",36,≥ 10000
"COc1cccc2cc(NC3CCN(CC(=O)N4C[C@@H](F)C[C@H]4C#N)CC3)cnc12 [Example 367, (2S,4S)-4-fluoro-1-[2-[4-[(8-methoxy-3-quinolyl)amino]-1-piperidyl]acetyl]pyrrolidine-2-carbonitrile]",28.1,≥ 10000
"N#C[C@@H]1C[C@H](F)CN1C(=O)CN1CCC(Nc2cnc3ncccc3c2)CC1 [Example 368, (2S,4S)-4-fluoro-1-[2-[4-(1,8-naphthyridin-3-ylamino)-1-piperidyl]acetyl]pyrrolidine-2-carbonitrile]",36.7,≥ 10000
"N#C[C@@H]1C[C@H](F)CN1C(=O)CN1CCC(Nc2cnc3nc(Cl)ccc3c2)CC1 [Example 369, (2S,4S)-1-[2-[4-[(7-chloro-1,8-naphthyridin-3-yl)amino]-1-piperidyl]acetyl]-4-fluoro-pyrrolidine-2-carbonitrile]",62.1,≥ 10000
"CCOc1ccc(NC2CCN(CC(=O)N3CCC[C@H]3C#N)CC2)c2cccnc12 [Example 370, (2S)-1-[2-[4-[(8-ethoxy-5-quinolyl)amino]-1-piperidyl]acetyl]pyrrolidine-2-carbonitrile]",11,36800
"CC(=O)N1CCc2c(NC3CCN(CC(=O)N4C[C@@H](F)C[C@H]4C#N)CC3)cccc21 [Example 373, (2S,4S)-1-[2-[4-[(1-acetylindolin-4-yl)amino]-1-piperidyl]acetyl]-4-fluoro-pyrrolidine-2-carbonitrile]",92.4,2760
"Cc1cc(NC2CCN(CC(=O)N3C[C@@H](F)C[C@H]3C#N)CC2)cc2cccnc12 [Example 374, (2S,4S)-4-fluoro-1-[2-[4-[(8-methyl-6-quinolyl)amino]-1-piperidyl]acetyl]pyrrolidine-2-carbonitrile]",31.6,5670
"N#C[C@@H]1C[C@H](F)CN1C(=O)CN1CCC(Nc2cc(F)c3ncccc3c2)CC1 [Example 375, (2S,4S)-4-fluoro-1-[2-[4-[(8-fluoro-6-quinolyl)amino]-1-piperidyl]acetyl]pyrrolidine-2-carbonitrile]",22.9,6960
"N#C[C@@H]1CCCN1C(=O)CN1CCC(Nc2cc(=O)oc3ccccc23)CC1 [Example 378, (2S)-1-[2-[4-[(2-oxochromen-4-yl)amino]-1-piperidyl]acetyl]pyrrolidine-2-carbonitrile]",99.2,24500
"N#C[C@@H]1C[C@H](F)CN1C(=O)CN1CCC(Nc2cc(=O)oc3ccccc23)CC1 [Example 379, (2S,4S)-4-fluoro-1-[2-[4-[(2-oxochromen-4-yl)amino]-1-piperidyl]acetyl]pyrrolidine-2-carbonitrile]",47.4,3380
